The values below come from US10624876B2, “Derivatives of indole for the treatment of endometriosis” (BIOKINESIS, priority 2016, dated 2020).

The assay concerns endometriosis lesions. Put plainly: Ex vivo clinical evaluation of endometriosis lesions (intraperitoneal uterine horn implants) in syngenic mice. The note with it: estradiol at D-1, implants at D0, nanosuspension (50 mg/mL) i.v. 100 mg/kg/BW every 2 days from D7 to D21, sacrificed at D23, versus control group (Vehicle). How it is done:
FIG. 2: Ex vivo clinical evaluation (implant volume (mm^3) and weight (g)) in syngenic mice.
Example 1: Echographic and Ex Vivo Evaluation of Endometriosis Lesions in Syngenic Mice Treated with Compound 38
More particularly, 20 syngenic mices were engraved estradiol at D-1. Intraperitoneal Uterine Horsn implant have been implanted in each mouse at DO. A nanosuspension of compound 38 (50 mg/mL) has been intravenously administered in 10 mice (treated group) at a 100 mg/kg/BW dose from D7 to D21 every 2 days.
Mices have been sacrified at D23 and implants have been removed for ex vivo clinical evaluation.

On to `COc1ccc(C#N)cc1/C=C(\C#N)c1c[nH]c2ccc(Br)cc12` [Compound 38, (Z)-3-(2-(5-bromo-1H-indol-3-yl)-2-cyanovinyl)-4-methoxybenzonitrile], for which the implant volume result is “lower than those of the control group” and the implant weight entry is reported as “lower than those of the control group”.
